Patent US5948437A, “Pharmaceutical compositions using thiazepine” (Zeneca Limited, priority 1997, dated 1999)
Counter-ions that a name gives are not always drawn.

Columns and labels:
[1] = compound and its pharmaceutically acceptable salts; cited from earlier work
[2] = physchem; details: water

SMILES | antidopaminergic activity [1] | solubility thermodynamic [2]
OCCOCCN1CCN(C2=Nc3ccccc3Sc3ccccc32)CC1 [11-[4-[2-(2-hydroxyethoxy)ethyl]-1-piperazinyl]-dibenzo[b,f][1,4]thiazepine] | exhibit useful antidopaminergic activity | 
OCCOCCN1CCN(C2=Nc3ccccc3Sc3ccccc32)CC1 [hemifumarate salt, 11-[4-[2-(2-hydroxyethoxy)ethyl]-1-piperazinyl]dibenzo[b,f][1,4]-thiazepine] |  | 3290 µg/mL
